Test results as given in paper PMC10025185, “A continuous in silico learning strategy to identify safety liabilities in compounds used in the leather and textile industry” (Archives of Toxicology, 2023).
Read-outs that look alike come from different tables or passages of the source.

Experiments:
[1] = test system: zebrafish embryos
From the text: In REACH, most of the mammalian tests for chemical safety assessment are related to reproductive toxicity (ECHA [2020]; Rovida and Hartung [2009]; Sellick [2011]) and consider complex molecular and cellular mechanisms determined in long-term experiments with very low throughput. To avoid the use of animals and to assay reproductive toxicity in a relevant 'non-animal' model adhering to the 3Rs rule, we used zebrafish embryos up to 120 hpf. Up to this developmental stage, the embryos are not considered animals according to European legislation (Sellick [2011]). When they reach the stage of independent feeding, zebrafish embryos become subject to regulations for animal experimentation. We performed a set of previously described experiments to cover a wide range of potential reprotoxic effects, including terato-carcinogenesis, developmental neurotoxicity, and endocrine disruption.
(§1) Zebrafish embryos obtained and maintained as described previously for toxicity determination were used to determine (I) terato-carcinogenesis assayed as previously informed (Selderslaghs et al. [2009], [2012]) with modifications. In brief, embryos were incubated for 0 hpf up to 120 hpf in the presence and absence of tested compounds. Each condition was assayed in triplicate with 12 embryos per condition per replicate. The appearance of selected characteristics and malformations with respect to normal development were quantified for the eyes, otoliths, heart, circulation, hatching, skeletal deformities, and body position. For each concentration tested, we assessed the mortality and the presence of malformations at 24, 48, 72, 96, and 120 hpf using a light microscope. When possible, the lethal effects (LC50) and terato-carcinogenic effects (EC50) were determined using the ToxRat software. Based on these values, a teratogenic index (TI) was calculated as LC50/EC50. Based on previous studies, we considered a compound to be a teratogen when TI > 2 at 120 hpf. When no TI could be calculated due to no malformations induction to a degree extensive enough to calculate the EC50 in the presence of high toxicity, the compound was considered a non-teratogen. (II) Neurotoxicity was assayed by evaluating the locomotor activity in embryos exposed to the tested compounds from 0 to 120 hpf using Zebrabox and Zebralab (ViewPoint). We tested three concentrations (24 embryos per concentration) below the NOEC to avoid readily toxic concentrations. After incubation with tested compounds for 120 hs in 96-well plates, the activity of larvae in response to transitions from dark to light was evaluated. The protocol involved an initial 10 min acclimation period inside the Zebrabox, followed by three cycles of light–dark of 10 min each. After the end of each cycle, the integrated activity of each embryo was registered. Statistical analysis was done using ANOVA, followed by the Tukey post hoc test. Differences were considered significant when p < 0.05. Dead embryos were not considered in the analysis. (III) The endocrine-disrupting effect in zebrafish embryos was assayed by real-time PCR as previously reported (Jarque et al. [2019]) with modifications. In brief, 0 hpf embryos (12 embryos per condition in triplicate) were incubated with selected compounds for up to 120 hpf. After incubation, treated (embryos incubated at the concentration right below the NOEC) and control embryos were collected in RNA later and kept at − 20°C until use. RNA was extracted from the samples using the RNeasy Mini Kit (QIAGEN) and was followed by cDNA synthesis using random primers and the AffinityScript Multi Temperature cDNA Synthesis Kit (Agilent Technologies).

[2] = CMR experimental result (carcinogenicity, micronucleus and reprotoxicity combined, logical OR)
From the text: For comparison with the prediction results, the results of the carcinogenicity, micronucleus, and reprotoxicity assays were combined using a logical OR operator. Therefore, we consider that compounds with a positive result for any of these three experimental assays is a CMR positive.

[3] = test system: zebrafish embryos; remark: listed apart in the source
Method: as §1, with “Technologies). Finally, real-time PCR was performed for eight target genes to obtain data on the estrogenic (cytochrome P450 family 19 subfamily A member 1: cyp19a1b, and vitellogenin: vtg1), androgenic (cytochrome P450 family 2 […]: cyp2k22, and cytosolic sulphotransferase 3: sult2st3), and thyroid hormone (thyroid peroxidase: tpo, thyroid hormone receptor alpha: tra, transthyretin: ttr, and iodothyronine deiodinase 2: dio2) effect of the tested compounds. Significant changes in gene expression between controls and treated samples were considered as a potential endocrine-disrupting effect.” for “Technologies).”

[4] = 0 to 120 hpf, teratogen when TI > 2
[5] = positive in any of the three experimental assays
[6] = second of two columns headed Neurotoxic
[7] = real-time PCR, zebrafish embryos

Row | Compound | Reprotoxicity (R) Teratogen [1, 4] | Reprotoxicity (R) Experimental conclusion ([1]; positive in any of the three assays) | CMR experimental result [2, 5] | Reprotoxicity (R) Endocrine disruptor ([3]; gene expression, 120 hpf, concentration right below NOEC) | Reprotoxicity (R) Neurotoxic [3, 6] | induction of cytochrome P450 2 K [3, 7] | Reprotoxicity (R) Experimental conclusion ([1]; in vivo) | Reprotoxicity (R) Teratogen ([1]; in vivo) | Reprotoxicity (R) Endocrine disruptor ([3]; in vivo) | Reprotoxicity (R) Neurotoxic ([3]; in vivo) | CMR experimental result [2] | induction of vitellogenin [3, 7]
1 | Reaction mass of cis-4-(isopropyl) cyclohexanemethanol and trans-4-(isopropyl) cyclohexanemethanol | No | No | YES | No | No | – | – | – | – | – | – | –
2 | CCN(CC)c1ccc(N=Nc2c(Cl)cc([N+](=O)[O-])cc2[N+](=O)[O-])c(NC(C)=O)c1 [N-[2-[(2-chloro-4,6-dinitrophenyl)azo]-5-(diethylamino)phenyl]acetamide] | No | – | YES | – | No | induced | – | – | – | – | – | –
3 | O=C(OCCc1ccccc1)c1ccccc1 [Phenethyl benzoate] | – | – | – | – | – | – | No | No | No | No | – | –
4 | CNC(=O)c1cc(Cl)ccn1.Cl [4-Chloro-N-methylpyridine-2-carboxamide hydrochloride (1:1)] | – | – | – | – | – | – | No | No | No | No | NO | –
5 | CCCCC(CC)CN (stereo not shown) [2-Ethylhexylamine] | – | – | – | – | – | induced | – | No | – | No | – | induced
